From US10294202B2, “Pyrrolidinones as herbicides” (FMC Corporation, priority 2013, dated 2019)

Experiments:
ducksalad = experiment: Test B flooded paddy test; format: in vivo, Heteranthera limosa; conditions: 500 g ai/ha, Flood; scale of 0 to 100 where 0 is no effect and 100 is complete control
Method in brief: (§1)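 Treatment was made at the 2-leaf stage by dosing the standing floodwater, kept 3 cm above soil level for the whole test. Greenhouse exposure lasted 13 to 15 days. Response is a visual percent rating relative to controls, where a dash indicates no test result.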

corn = experiment: Test A pre-/postemergence herbicide test; format: in vivo, Zea mays; conditions: Postemergence
Method in brief: (§2)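 Scoring was visual, relative to untreated controls, on a 0–100 scale after about 10 greenhouse days. Preemergence treatment used a directed soil spray over seeded loam/sand; postemergence treatment targeted one- to two-leaf plants of 2–10 cm.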

giant foxtail = experiment: Test A pre-/postemergence herbicide test; format: in vivo, Setaria faberii
Method in brief: as §2

wheat = experiment: Test A pre-/postemergence herbicide test; format: in vivo, Triticum aestivum; conditions: Postemergence
Method in brief: as §2

ryegrass, Italian = experiment: Test A pre-/postemergence herbicide test; format: in vivo, Lolium multiflorum
Method in brief: as §2

barnyardgrass [1] = experiment: Test B flooded paddy test; format: in vivo, Echinochloa crus-galli; conditions: 500 g ai/ha, Flood; scale of 0 to 100 where 0 is no effect and 100 is complete control
Method in brief: as §1

pigweed = experiment: Test A pre-/postemergence herbicide test; format: in vivo, Amaranthus retroflexus
Method in brief: as §2

ragweed = experiment: Test A pre-/postemergence herbicide test; format: in vivo, Ambrosia elatior
Method in brief: as §2

sedge, umbrella = experiment: Test B flooded paddy test; format: in vivo, Cyperus difformis; conditions: 500 g ai/ha, Flood; scale of 0 to 100 where 0 is no effect and 100 is complete control
Method in brief: as §1

galium = experiment: Test A postemergence herbicide test; format: in vivo, Galium aparine
Method in brief: (§3)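 Potted in loam soil/sand blend; postemergence application at 1–2 leaf stage (2–10 cm). Greenhouse ~10 d. Visual injury vs untreated, 0–100 scale; 100 = complete control.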

rice = experiment: Test B flooded paddy test; format: in vivo, Oryza sativa; conditions: 500 g ai/ha, Flood; scale of 0 to 100 where 0 is no effect and 100 is complete control
Method in brief: as §1

blackgrass = experiment: Test A postemergence herbicide test; format: in vivo, Alopecurus myosuroides
Method in brief: as §3

kochia = experiment: Test A pre-/postemergence herbicide test; format: in vivo, Kochia scoparia
Method in brief: as §2

barnyardgrass [2] = experiment: Test A pre-/postemergence herbicide test; format: in vivo, Echinochloa crus-galli
Method in brief: as §2

[3] = 125 g ai/ha, visual rating on 0 to 100 scale (0 no effect, 100 complete control), approx. 10 days
[4] = 500 g ai/ha, 0 to 100 scale (0 no effect, 100 complete control)
[5] = Postemergence, 125 g ai/ha, visual rating on 0 to 100 scale (0 no effect, 100 complete control), approx. 10 days
[6] = Postemergence, 500 g ai/ha, 0 to 100 scale (0 no effect, 100 complete control)
[7] = Preemergence, 125 g ai/ha, 0 to 100 scale where 0 is no effect and 100 is complete control
[8] = preemergence, 500 g ai/ha, 0 to 100 scale, 0 is no effect and 100 is complete control
[9] = Preemergence, 500 g ai/ha, visual rating on 0 to 100 scale (0 no effect, 100 complete control)
[10] = 125 g ai/ha, 0 to 100 scale, 0 is no effect, 100 is complete control
[11] = 125 g ai/ha, visual rating, 0 to 100 scale, 0 no effect, 100 complete control, approximately 10 days, preemergence
[12] = Postemergence, 125 g ai/ha, 0 to 100 scale, 0 is no effect, 100 is complete control

## O=C1NCC(c2cc3ccccc3s2)C1C(=O)Nc1cccc(F)c1F (stereo not drawn) [Compound 296]
ducksalad
  Plant response rating, Ducksalad: 60
corn; [3]
  Plant response rating, Corn: 0
corn; [4]
  Plant response rating, Corn: 0
Giant foxtail; [5]
  Plant response rating, Foxtail, Giant: 0
Giant foxtail; [6]
  Plant response rating, Foxtail, Giant: 0
Giant foxtail; [7]
  Plant response rating, Foxtail, Giant: 0
Giant foxtail; [8]
  Plant response rating, Foxtail, Giant: 0
wheat; [3]
  Plant response rating, Wheat: 0
wheat; [4]
  Plant response rating, Wheat: 0
ryegrass, Italian; [5]
  Plant response rating, Ryegrass, Italian: 0
ryegrass, Italian; [6]
  Plant response rating, Ryegrass, Italian: 0
ryegrass, Italian; [7]
  Plant response rating, Ryegrass, Italian: 0
ryegrass, Italian; [9]
  Ryegrass, Italian plant response rating: 0
Barnyardgrass [1]
  Plant response rating, Barnyardgrass: 30
pigweed; [5]
  Plant response rating, Pigweed: 0
pigweed; [6]
  Plant response rating, Pigweed: 0
pigweed; [7]
  Plant response rating, Pigweed: 0
pigweed; [8]
  Plant response rating, Pigweed: 0
ragweed; [5]
  Plant response rating, Ragweed: 0
ragweed; [6]
  Plant response rating, Ragweed: 0
ragweed; [7]
  Plant response rating, Ragweed: 0
ragweed; [8]
  Plant response rating, Ragweed: 0
sedge, umbrella
  Plant response rating, Sedge, Umbrella: 0
galium; [3]
  Plant response rating, Galium: 0
galium; [4]
  Plant response rating, Galium: 0
rice
  Plant response rating, Rice: 0
blackgrass; [3]
  Plant response rating, Blackgrass: 0
blackgrass; [4]
  Plant response rating, Blackgrass: 0
kochia; [5]
  Plant response rating, Kochia: 0
kochia; [6]
  Plant response rating, Kochia: 0
kochia; [7]
  Plant response rating, Kochia: 0
kochia; [8]
  Plant response rating, Kochia: 0
Barnyardgrass [2]; [5]
  Plant response rating, Barnyardgrass: 0
Barnyardgrass [2]; [6]
  Plant response rating, Barnyardgrass: 20
Barnyardgrass [2]; [7]
  Plant response rating, Barnyardgrass: 0
Barnyardgrass [2]; [8]
  Plant response rating, Barnyardgrass: 0

## O=C1NCC(c2ccc(Cl)cc2)C1C(=O)Nc1ccccc1F (stereo not drawn) [Compound 217]
ducksalad
  Plant response rating, Ducksalad: 100
corn; [10]
  Plant response rating, Corn: 20
corn; 500 g ai/ha
  Corn plant response rating (0 to 100 scale, 0 is no effect, 100 is complete control): 30
Giant foxtail; [11]
  Plant response rating, Foxtail, Giant: 90
Giant foxtail; [12]
  Plant response rating, Foxtail, Giant: 80
Giant foxtail; Postemergence, 500 g ai/ha
  Foxtail, Giant plant response rating (0 to 100 scale, 0 is no effect, 100 is complete control): 90
Giant foxtail; [8]
  Plant response rating, Foxtail, Giant: 90
wheat; [10]
  Plant response rating, Wheat: 20
wheat; 500 g ai/ha
  Wheat plant response rating (0 to 100 scale, 0 is no effect, 100 is complete control): 30
ryegrass, Italian; [11]
  Plant response rating, Ryegrass, Italian: 40
ryegrass, Italian; [12]
  Plant response rating, Ryegrass, Italian: 0
ryegrass, Italian; Postemergence, 500 g ai/ha
  Ryegrass, Italian plant response rating (0 to 100 scale, 0 is no effect, 100 is complete control): 30
ryegrass, Italian; [8]
  Plant response rating, Ryegrass, Italian: 60
Barnyardgrass [1]
  Plant response rating, Barnyardgrass: 40
pigweed; [11]
  Plant response rating, Pigweed: 20
pigweed; [12]
  Plant response rating, Pigweed: 0
pigweed; Postemergence, 500 g ai/ha
  Pigweed plant response rating (0 to 100 scale, 0 is no effect, 100 is complete control): 0
pigweed; [8]
  Plant response rating, Pigweed: 40
ragweed; [11]
  Plant response rating, Ragweed: 0
ragweed; [12]
  Plant response rating, Ragweed: 0
ragweed; Postemergence, 500 g ai/ha
  Ragweed plant response rating (0 to 100 scale, 0 is no effect, 100 is complete control): 30
ragweed; [8]
  Plant response rating, Ragweed: 50
sedge, umbrella
  Plant response rating, Sedge, Umbrella: 0
galium; [10]
  Plant response rating, Galium: 30
galium; 500 g ai/ha
  Galium plant response rating (0 to 100 scale, 0 is no effect, 100 is complete control): 50
rice
  Plant response rating, Rice: 0
blackgrass; [10]
  Plant response rating, Blackgrass: 20
blackgrass; 500 g ai/ha
  Blackgrass plant response rating (0 to 100 scale, 0 is no effect, 100 is complete control): 50
kochia; [11]
  Plant response rating, Kochia: 30
kochia; [12]
  Plant response rating, Kochia: 20
kochia; Postemergence, 500 g ai/ha
  Kochia plant response rating (0 to 100 scale, 0 is no effect, 100 is complete control): 70
kochia; [8]
  Plant response rating, Kochia: 70
Barnyardgrass [2]; [11]
  Plant response rating, Barnyardgrass: 70
Barnyardgrass [2]; [12]
  Plant response rating, Barnyardgrass: 70
Barnyardgrass [2]; Postemergence, 500 g ai/ha
  Barnyardgrass plant response rating (0 to 100 scale, 0 is no effect, 100 is complete control): 90
Barnyardgrass [2]; [8]
  Plant response rating, Barnyardgrass: 90

## O=C1NCC(c2cccc(C(F)(F)F)c2)C1C(=O)Nc1cccc(C(F)(F)F)c1 (stereo not drawn) [Compound 313]
ducksalad
  Plant response rating, Ducksalad: 0
corn; [3]
  Plant response rating, Corn: 0
corn; [4]
  Plant response rating, Corn: 0
Giant foxtail; [5]
  Plant response rating, Foxtail, Giant: 40
Giant foxtail; [6]
  Plant response rating, Foxtail, Giant: 70
Giant foxtail; [7]
  Plant response rating, Foxtail, Giant: 30
Giant foxtail; [9]
  Foxtail, Giant plant response rating: 80
wheat; [3]
  Plant response rating, Wheat: 0
wheat; [4]
  Plant response rating, Wheat: 0
ryegrass, Italian; [5]
  Plant response rating, Ryegrass, Italian: 0
ryegrass, Italian; [6]
  Plant response rating, Ryegrass, Italian: 0
ryegrass, Italian; [7]
  Plant response rating, Ryegrass, Italian: 0
ryegrass, Italian; [9]
  Ryegrass, Italian plant response rating: 0
Barnyardgrass [1]
  Plant response rating, Barnyardgrass: 60
pigweed; [5]
  Plant response rating, Pigweed: 0
pigweed; [6]
  Plant response rating, Pigweed: 0
pigweed; [7]
  Plant response rating, Pigweed: 0
pigweed; [9]
  Pigweed plant response rating: 0
ragweed; [5]
  Plant response rating, Ragweed: 0
ragweed; [6]
  Plant response rating, Ragweed: 0
ragweed; [7]
  Plant response rating, Ragweed: 0
ragweed; [9]
  Ragweed plant response rating: 0
sedge, umbrella
  Plant response rating, Sedge, Umbrella: 0
galium; [3]
  Plant response rating, Galium: 0
galium; [4]
  Plant response rating, Galium: 0
rice
  Plant response rating, Rice: 0
blackgrass; [3]
  Plant response rating, Blackgrass: 0
blackgrass; [4]
  Plant response rating, Blackgrass: 0
kochia; [5]
  Plant response rating, Kochia: 0
kochia; [6]
  Plant response rating, Kochia: 0
kochia; [7]
  Plant response rating, Kochia: 0
kochia; [9]
  Kochia plant response rating: 0
Barnyardgrass [2]; [5]
  Plant response rating, Barnyardgrass: 20
Barnyardgrass [2]; [6]
  Plant response rating, Barnyardgrass: 80
Barnyardgrass [2]; [7]
  Plant response rating, Barnyardgrass: 50
Barnyardgrass [2]; [9]
  Barnyardgrass plant response rating: 80
